Source: PubChem BioAssay (NCI)
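Test compounds were applied to cells in 96-well plates for 48 hours at 5 doses. TGI denotes the concentration required for complete inhibition of growth.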

Experiments:
Assay in all cases: growth of human tumour cells (NCI), 48 h
[1] = tested on: SK-MEL-28 melanoma
[2] = tested on: SK-MEL-5 melanoma
[3] = tested on: NCI-H23 lung
[4] = tested on: SK-OV-3 ovarian
[5] = tested on: MDA-MB-435
[6] = tested on: HOP-62 NSCLC
[7] = tested on: A549 NSCLC
[8] = tested on: SF-539 CNS
[9] = tested on: MDA-MB-231 breast
[10] = tested on: A498 renal

SMILES	TGI [1] [µM]	TGI [2] [µM]	TGI [3] [µM]	TGI [4] [µM]	TGI [5] [µM]	TGI [6] [µM]	TGI [7] [µM]	TGI [8] [µM]	TGI [9] [µM]	TGI [10] [µM]
CC(=O)Oc1ccc(/C=C/C(=O)O[C@H]2CCCC[C@@H]2OC(=O)/C=C/c2ccc(OC(C)=O)c(OC(C)=O)c2)cc1OC(C)=O	33.1	15.1	27	27.4	32.7	32.2	> 100	> 100	> 100	38.2
c1ccc(-c2cc(-c3cccs3)c(-c3cccs3)o2)cc1	> 100	> 100	> 100	> 100	> 100	> 100	> 100	> 100	> 100	> 100
CC(=O)N1c2ccccc2C(C)C1c1[nH]c2ccccc2c1C (stereo not given)	49.3	28.3	> 100	43.9	50.4	36.6	83.2	27.2	53.5	53.8
COc1ccc2cc(C(=O)NCCCNC(=O)c3ccc4cc(OC)ccc4c3)ccc2c1	> 100	> 100	> 100	> 65	> 100	42.1	> 100	7.99	> 74.4	> 100
C=CCN(c1cc(OC)c2[nH]cc(C)c2c1[N+](=O)[O-])S(C)(=O)=O	> 100	> 100	> 100	> 100	> 100	> 100	> 100	> 100	> 100	> 100
